The source of these data is patent publication US10821128B2, “Treatment of cancer by systemic administration of Dbait molecules” (ONXEO, priority 2016, dated 2020).

The test system of one data set is MDA-MB-231 tumor. As to the kind of experiment: DT01 with carboplatin in MDA-MB-231 TNBC model. Format: in vivo, athymic nude mouse. To be noted: carboplatin alone treated group; 177 days of the experiment. On the procedure:
Treatment was administered in 3 cycles with a 2 week gap between cycles either alone or in association with carboplatin. Only one dose of carboplatin was injected per cycle of DT01 treatment (2nd day of each cycle). The dose of carboplatin was 50 mg/kg per cycle. Treatments were performed over 7 weeks (3 cycles of treatment).
Antitumor activity was evaluated by measuring tumor volume during and after treatment. DT01 was administered intraperitoneally during 3 sessions of 5 days treatment with two weeks of rest between each session. Carboplatin was administered once a week on the second day of each DT01 treatment cycle.
The MDA-MB231 cell line is derived from a human breast adenocarcinoma and can be ordered at the ATCC. The MDA-MB231 cells were grafted in the mammary fat pad with 10·10^6 cells re-suspended in 0.1 ml of DMEM with no additive. The athymic nude mouse is immunodeficient, thus enabling the xenotransplantation and growth of human tumors.

Data set [1] deals with HCT116. The data set is described as follows: In vitro proliferation assay (live cell counts). It counts as cell-based, human. Here is the method: (§1) CRC cell lines; HT29 (mutated p53, ATCC: HTB-38) and HCT116 (wild-type p53, ATCC: CCL-247) were purchased directly from ATCC. These cells were authenticated by ATCC by generating human short tandem repeat profiles by simultaneously amplifying multiple STR loci and amelogenin (for gender determination) using the Promega PowerPlex® Systems. These cells were cultured in the laboratory for less than 6 months from the date of purchase in DMEM medium supplemented with 10% fetal bovine serum, 1% sodium pyruvate, […] (Invitrogen, Carlsbad, Calif.), when the current study was performed. HT29 cell line stably expressing luciferase was established in-house using a pGL4.5 luciferase reporter vector (luc2/CMV/Hygro) (Promega). HT29 luciferase cells were supplemented with 200 μg/ml hygromycin B. All cell lines were additionally subjected to mycoplasma testing in-house and were free of mycoplasma contamination (Biovalley, France).
(§2) Cells were transfected with 2.5 μgs of Dbait (5′-[…]-(H) […]-3′ SEQ ID No 9) (Eurogentec, Belgium) where H is a hexaethyleneglycol linker and underlined nucleotides are phosphorothioates. The cells were sham transfected with an 8 bp oligonucleotide control (8H) complexed with 11 kDa polyethyleneimine (PEI) as previously described (Quantz et al, 2009, PloS one, 4, e6298).
(§3) Cells were seeded at a density of 3×10^4 cells/60 mm dishes and transfected with Dbait. Following treatment, cells were washed and left untreated or treated with a combination of 5 μM of oxaliplatin (OXA, Sigma) and 2.5 μM of 5-fluouracil (5-FU, Sigma) and live cell counts were performed on days 1, 3, 5, 6, 7 and 9.

The test system of data set [2] is HT29. As to the kind of experiment: In vitro proliferation assay (live cell counts). Format: cell-based, human. Here is the method:
as §1, §2, §3

The test system of data set [3] is HCT116. As to the kind of experiment: Clonogenic survival assay. It counts as cell-based, human. On the procedure: as §1, §2
(§4) Cells were transfected with Dbait and left untreated or treated with 5 μM of OXA and 2.5 μM of 5-FU for 1 hr. The cells were diluted, allowed to grow for 14 days and the clones were stained with crystal violet and counted.

For data set [4], the system named is HT29. As to the kind of experiment: Clonogenic survival assay. It counts as cell-based, human. On the procedure: as §1, §2, §4
Data set [5] relates to pan-nuclear phosphorylation of H2AX in HCT116. The data set is described as follows: γH2AX immunofluorescence (DNA-PK activation). Format: cell-based, human. On the procedure:
(§5) The inventors have previously shown that Dbait acts by activating DNA-PK kinase, which phosphorylate numerous targets including the histone variant H2AX.
(§6) γH2AX immunofluorescence was performed as described previously using a monoclonal anti-phospho-Histone H2A.X (Ser139) Antibody, clone JBW301 (1:500 dilution; 05-636, Millipore, USA) (9).

Data set [6] deals with pan-nuclear phosphorylation of H2AX in HT29. As to the kind of experiment: γH2AX immunofluorescence (DNA-PK activation). Format: cell-based, human. On the procedure:
as §5, §6

Setting [7] is: single treatment (Dbait alone, or OXA and 5-FU alone).
[8] abbreviates: combination of Dbait with chemotherapy (OXA/5-FU), p=0.05.

`N.N.O=C([O-])C1(C(=O)[O-])CCC1.[Pt+2]` [carboplatin]: the abnormal death result in the data set on MDA-MB-231 tumor was “one”.

With “5′-GCTGTGCCCACAACCCAGCAAACAAGCCTAGA-(H) TCTAGGCTTGTTTGCTGGGTTGTGGGCACAGC-3′ (hexaethyleneglycol linker; phosphorothioates; nucleic acid molecule Id; note=“at the 3′ end of the complementary strand the three last nucleotides with phosphorothioate or methylphosphonate backbone”; modified_base (1)..(3) mod_base= phosphorothioate or methylphosphonate backbone; (1)..(1) at the 5′ end, Lm = carboxamido oligoethylene glycol + C = single or double chain fatty acids, cholesterol, sugars, peptides or proteins; stem_loop (1)..(3) [Dbait]”, the “cell proliferation (number of living cells)” value with HCT116 [1] (setting [7]) and with HT29 [2] (setting [7]) was “no effect on cell proliferation” throughout. Also, the “level of proliferation compared to chemotherapy alone” value is “significantly reduced” with HCT116 [1] (transfected with Dbait prior to OXA/5-FU, day 9, p<0.001) and “significantly reduced” in the data set with HT29 [2] (transfected with Dbait prior to OXA/5-FU, day 9, p<0.02). Also, the lethality entry in the data set on HCT116 [3] (Dbait treatment alone, p<0.01) is “approximately 30%”. For the same compound, the clonogenic survival entry is recorded as “significant reduction in survival” in the data set on HCT116 [3] (setting [8]); “significant reduction in survival” in the data set on HT29 [4] (setting [8]); “no significant effect” in the data set on HT29 [4] (single treatment (Dbait alone, or chemotherapy alone p=0.08)). Besides, the “activity by pan-nuclear phosphorylation of H2AX” value in data set [5] and in data set [6] was “confirmed the activity” in each case.
